Data set [1] deals with T1, SSAO (amine oxidase [copper-containing] 3) (Homo sapiens, UniProt Q16853).
T1 sequence (Q16853 whole entry): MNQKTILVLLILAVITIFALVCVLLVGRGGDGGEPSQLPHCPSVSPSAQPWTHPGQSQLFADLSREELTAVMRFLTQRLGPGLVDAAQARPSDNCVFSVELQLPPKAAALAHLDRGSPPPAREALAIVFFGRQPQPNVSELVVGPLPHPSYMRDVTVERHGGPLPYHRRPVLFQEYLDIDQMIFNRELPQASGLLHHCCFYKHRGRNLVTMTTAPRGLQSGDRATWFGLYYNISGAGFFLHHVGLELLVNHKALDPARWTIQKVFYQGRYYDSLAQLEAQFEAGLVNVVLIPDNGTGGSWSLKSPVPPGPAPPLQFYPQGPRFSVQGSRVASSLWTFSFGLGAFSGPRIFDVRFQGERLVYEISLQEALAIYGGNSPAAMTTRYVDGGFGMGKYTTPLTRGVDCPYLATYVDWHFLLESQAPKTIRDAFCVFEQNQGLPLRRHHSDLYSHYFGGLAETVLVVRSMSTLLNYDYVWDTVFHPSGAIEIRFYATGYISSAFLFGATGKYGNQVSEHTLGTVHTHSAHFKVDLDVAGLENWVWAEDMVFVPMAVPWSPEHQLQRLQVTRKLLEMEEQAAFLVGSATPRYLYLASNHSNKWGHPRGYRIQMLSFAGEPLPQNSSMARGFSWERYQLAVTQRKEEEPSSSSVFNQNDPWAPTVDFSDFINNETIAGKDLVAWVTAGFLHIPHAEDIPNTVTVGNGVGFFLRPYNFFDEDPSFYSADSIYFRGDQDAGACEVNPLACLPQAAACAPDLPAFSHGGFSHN
Kind of data set: Stability of the compound assessed as human full length SSAO-mediated drug metabolism expressed in CHO cells measured as compound remaining after 20 mins. The format is ADME, cell-based. Particulars: CHO cells expressing human full length SSAO, read-out: Stability.

Data set [2] addresses T2, hERG (KCNH2) (Homo sapiens, UniProt Q12809). In words: Inhibition of human ERG channel expressed in CHO cells at 1 uM. The note with it: CHO cells expressing human ERG channel. The format is cell-based.
Data set [3] can be described thus: Drug metabolism in human liver microsomes after 20 mins. It counts as ADME. The note with it: read-out: Drug metabolism. On the technique in general: Microsomes from liver hold many membrane-bound enzymes, among them those of drug oxidation.
A short description of data set [4]: Drug metabolism in guinea pig liver microsomes after 20 mins. It counts as ADME, Cavia porcellus. Particulars: read-out: Drug metabolism.
Data set [5] can be described thus: Drug metabolism in rat liver microsomes after 20 mins. The note with it: read-out: Drug metabolism. The format is ADME.
In data set [6] the target is T2, hERG (KCNH2). Kind of data set: Inhibition of human ERG channel expressed in CHO cells at 10 uM. Particulars: CHO cells expressing human ERG channel. It counts as cell-based.

Usually inhibition stands for the share of the control response that was lost under treatment.

T2 sequence (Q12809 whole entry): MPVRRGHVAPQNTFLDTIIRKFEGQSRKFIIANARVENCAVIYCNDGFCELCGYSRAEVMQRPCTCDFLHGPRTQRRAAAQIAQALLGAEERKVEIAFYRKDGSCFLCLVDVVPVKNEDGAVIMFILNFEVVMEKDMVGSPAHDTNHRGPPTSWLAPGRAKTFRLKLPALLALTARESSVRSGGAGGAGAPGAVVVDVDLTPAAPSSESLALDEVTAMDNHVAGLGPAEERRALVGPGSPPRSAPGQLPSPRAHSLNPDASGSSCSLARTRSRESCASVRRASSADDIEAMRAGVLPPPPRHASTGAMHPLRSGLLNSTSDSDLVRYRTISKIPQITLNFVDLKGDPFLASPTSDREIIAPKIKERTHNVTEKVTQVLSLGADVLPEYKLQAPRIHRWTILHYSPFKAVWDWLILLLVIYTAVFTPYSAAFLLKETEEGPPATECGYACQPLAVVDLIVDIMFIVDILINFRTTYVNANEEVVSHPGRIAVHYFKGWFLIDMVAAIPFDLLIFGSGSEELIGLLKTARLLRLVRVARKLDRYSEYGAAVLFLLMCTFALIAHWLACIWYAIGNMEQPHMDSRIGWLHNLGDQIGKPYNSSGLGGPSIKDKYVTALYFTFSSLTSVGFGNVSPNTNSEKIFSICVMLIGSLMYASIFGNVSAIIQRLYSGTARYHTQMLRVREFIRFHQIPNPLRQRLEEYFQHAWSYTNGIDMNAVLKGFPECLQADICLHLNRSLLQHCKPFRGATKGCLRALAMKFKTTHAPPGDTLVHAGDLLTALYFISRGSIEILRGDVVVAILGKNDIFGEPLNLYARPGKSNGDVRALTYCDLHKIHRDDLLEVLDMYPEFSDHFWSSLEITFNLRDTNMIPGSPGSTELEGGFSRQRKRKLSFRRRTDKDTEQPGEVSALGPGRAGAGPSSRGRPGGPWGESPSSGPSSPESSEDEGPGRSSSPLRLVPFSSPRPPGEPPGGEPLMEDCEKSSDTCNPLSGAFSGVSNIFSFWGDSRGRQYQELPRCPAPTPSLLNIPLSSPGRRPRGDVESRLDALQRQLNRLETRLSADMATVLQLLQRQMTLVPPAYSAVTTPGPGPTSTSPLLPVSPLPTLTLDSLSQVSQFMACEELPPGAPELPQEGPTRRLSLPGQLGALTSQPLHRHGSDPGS

Regarding `NCc1cccc(C2CCN(C(=O)c3ccc(C#Cc4ccccc4F)o3)CC2)c1`, the remaining at 20 min in data set [1] worked out at 8%.

In turn, `COCCn1cc(C(=O)N2CCC3(CC2)COc2ccc(CN)cc23)c2cccc(F)c21` registered an inhibition at 1 µM against hERG (KCNH2) [2] of 11%. In addition, the metabolised at 20 min came to 17% in data set [3], 12% in data set [4] and 10% in data set [5]. In data set [1], the remaining at 20 min came to 89%. The same compound yielded an inhibition at 10 µM on hERG (KCNH2) [6] of 16%.

Turning to `COCCn1cc(C(=O)N2CCC(c3cc(CN)ccc3F)CC2)c2cccc(F)c21`, the metabolised at 20 min turned out to be 71% in data set [3], 38% in data set [4] and 21% in data set [5]. Moreover, the remaining at 20 min in data set [1] was determined as 78%.

(Values after ChEMBL document CHEMBL3217425, “Structure-based design, synthesis, and profiling of a -tryptase inhibitor with a spiro-piperidineamide scaffold, benzylamine P1 group, and a substituted indole P4 group” (Medchemcomm, 2011).)
